Here are results for six compounds from patent US7759375B2, “Epothilones C, D, E, and F, preparation and compositions” (priority 1996, dated 2010).

For one assay, the system named is K-562 (leukaemia). Nature of the assay: Growth inhibition in cell culture, K-562. It counts as cell-based, human. The protocol:
(§1) The epothilones according to the invention were tested with cell cultures (Table 2) and for promotion of polymerization (Table 3).

A further assay deals with U-937 (lymphoma). Nature of the assay: Growth inhibition in cell culture, U-937. The assay is classed as cell-based, human. The protocol: as §1
Assay [1] concerns the target T1, purified tubulin from pigs' brain (Sus scrofa, UniProt P02554).
T1 construct: purified tubulin from pigs' brain; from tissue; host or cells: pig brain
It counts as biochemical, pig. The conditions noted are these: 0.9 mg of tubulin/ml, 1 μM sample concentration; for Time up to the half-maximal polymerization, Agent [%] (relative activity in % of the control): control = 100, lowest values indicate the best activity; for Time up to the half-maximal polymerization of the control, Agent [s]: average of experiments w-z, control 190 s; for Time up to the half-maximal polymerization of the control, measurement w: independent experiment w; for Time up to the half-maximal polymerization of the control, measurement x: independent experiment x; for Time up to the half-maximal polymerization of the control, measurement y: independent experiment y; for Time up to the half-maximal polymerization of the control, measurement z: independent experiment z. The method, then: as §1
The polymerization test is an in vitro test using purified tubulin from pigs' brain. Evaluation is carried out photometrically.

For assay [2], the system named is A-549 (carcinoma of the lung). Kind of assay: Growth inhibition in cell culture, A-549. The assay is classed as cell-based, human. The method, then: as §1
A further assay deals with Mouse fibroblasts L 929. Kind of assay: Growth inhibition in cell culture, mouse fibroblasts L929. The assay is classed as cell-based. The protocol: as §1
The subject of assay [3] is KB-3.1 (carcinoma of the cervix). Nature of the assay: Growth inhibition in cell culture, KB-3.1. The assay is classed as cell-based, human. The method, then: as §1
Another assay deals with HL-60 (leukaemia). Kind of assay: Growth inhibition in cell culture, HL-60. It counts as cell-based, human. The protocol:
as §1

The subject of assay [4] is KB-VI (carcinoma of the cervix multires). Kind of assay: Growth inhibition in cell culture, KB-VI. The assay is classed as cell-based, human. The protocol: as §1
Assay [5] has as its system A-498 (carcinoma of the kidney). Nature of the assay: Growth inhibition in cell culture, A-498. It counts as cell-based, human. The method, then: as §1
Where [6] appears, read: KB-3.1 (carcinoma of the cervix).
Where [7] appears, read: KB-VI (carcinoma of the cervix multires).
Where [8] appears, read: A-498 (carcinoma of the kidney).

≈ marks a conversion by molar mass, not a printed value. Read-outs that look alike come from different tables or passages of the source.

T1 sequence (P02554 whole entry): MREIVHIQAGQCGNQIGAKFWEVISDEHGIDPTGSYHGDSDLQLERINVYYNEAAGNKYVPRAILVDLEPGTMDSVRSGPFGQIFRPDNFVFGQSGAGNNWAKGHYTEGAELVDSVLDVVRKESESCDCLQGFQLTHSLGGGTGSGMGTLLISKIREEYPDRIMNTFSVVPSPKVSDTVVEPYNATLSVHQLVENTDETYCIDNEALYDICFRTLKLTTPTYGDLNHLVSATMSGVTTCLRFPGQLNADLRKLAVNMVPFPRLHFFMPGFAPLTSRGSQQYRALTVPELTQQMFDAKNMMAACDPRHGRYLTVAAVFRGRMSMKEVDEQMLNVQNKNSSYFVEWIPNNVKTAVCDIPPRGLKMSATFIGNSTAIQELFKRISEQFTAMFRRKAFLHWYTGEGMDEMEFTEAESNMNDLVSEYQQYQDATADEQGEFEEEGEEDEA
T1 sequence (P02550 whole entry partner): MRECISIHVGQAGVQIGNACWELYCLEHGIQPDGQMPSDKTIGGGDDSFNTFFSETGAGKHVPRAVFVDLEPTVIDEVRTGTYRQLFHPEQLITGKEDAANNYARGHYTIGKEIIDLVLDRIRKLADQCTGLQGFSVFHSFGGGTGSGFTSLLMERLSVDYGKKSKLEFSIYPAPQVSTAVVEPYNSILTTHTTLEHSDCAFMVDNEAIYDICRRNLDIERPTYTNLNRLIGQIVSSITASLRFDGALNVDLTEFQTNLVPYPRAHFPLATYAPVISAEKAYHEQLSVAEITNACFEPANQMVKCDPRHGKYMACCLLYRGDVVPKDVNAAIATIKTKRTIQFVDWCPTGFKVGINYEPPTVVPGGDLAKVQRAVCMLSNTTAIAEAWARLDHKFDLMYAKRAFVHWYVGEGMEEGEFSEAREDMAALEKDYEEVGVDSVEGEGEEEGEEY

As to `C/C(=C\c1csc(C)n1)[C@@H]1C[C@@H]2O[C@@H]2CCC[C@H](C)[C@H](O)[C@@H](C)C(=O)C(C)(C)[C@@H](O)CC(=O)O1` [Epothilone A, epothilone A, reference compound], the “IC-50” value in the assay with K-562 (leukaemia) (K-562 (leukaemia)) was found to be 0.3 ng/mL; in the assay on U-937 (lymphoma) (U-937 (lymphoma)) it was 0.2 ng/mL; in [2] (A-549 (carcinoma of the lung)), 0.7 ng/mL; in the assay with Mouse fibroblasts L 929 (Mouse fibroblasts L 929), 4 ng/mL; in [3] (setting [6]), 1 ng/mL; in the assay with HL-60 (leukaemia) (HL-60 (leukaemia)), 0.2 ng/mL. Also, in assay [4] (setting [7]), the “IC-50” value is 0.3 ng/mL. Moreover, the “Time up to the half-maximal polymerization, Agent [%] (relative activity in % of the control)” value in assay [1] was 39%. The “Time up to the half-maximal polymerization of the control, Agent [s]” value (from here on “Time up … [s]”) in assay [1] is recorded as 74 s. The “Time up to the half-maximal polymerization of the control, measurement w” value (“Time up … measurement w” below) in assay [1] is recorded as 95 s. In addition, in assay [1], the “Time up to the half-maximal polymerization of the control, measurement x” value (“Time up … measurement x” for short) was 60 s. Moreover, the “Time up to the half-maximal polymerization of the control, measurement y” value (“Time up … measurement y” below) in [1] came out at 70 s. Further, the “Time up to the half-maximal polymerization of the control, measurement z” value (shortened to “Time up … measurement z”) in [1] is reported as 70 s. The half-maximal inhibitory concentration (IC50) with Mouse fibroblasts L 929 (Mouse fibroblasts, L929, concentration which reduces the growth by 50%) amounted to 4 ng/mL (≈ 8.1 nM); in assay [3] (HeLa KB-3.1 (human), concentration which reduces the growth by 50%), 1 ng/mL (≈ 2.03 nM).

In the case of `C/C(=C\c1csc(C)n1)[C@@H]1C[C@@H]2O[C@]2(C)CCC[C@H](C)[C@H](O)[C@@H](C)C(=O)C(C)(C)[C@@H](O)CC(=O)O1` [Epothilone B, epothilone B, reference compound], the “IC-50” value turned out to be 0.3 ng/mL in the assay on K-562 (leukaemia) (K-562 (leukaemia)); 0.2 ng/mL in the assay on U-937 (lymphoma) (U-937 (lymphoma)); 1.5 ng/mL in assay [5] (setting [8]); 0.1 ng/mL in assay [2] (A-549 (carcinoma of the lung)); 1 ng/mL in the assay on Mouse fibroblasts L 929 (Mouse fibroblasts L 929); 0.6 ng/mL in assay [3] (setting [6]). Besides, the “IC-50” value in the assay on HL-60 (leukaemia) (HL-60 (leukaemia)) stood at 0.2 ng/mL; in [4] (setting [7]), 0.3 ng/mL. Further, the “Time up to the half-maximal polymerization, Agent [%] (relative activity in % of the control)” value in assay [1] is reported as 14%. Also, the “Time up … [s]” value in assay [1] was determined as 26 s. For the same compound, the “Time up … measurement x” value in assay [1] is listed as 23 s. In assay [1], the “Time up … measurement y” value stood at 25 s. The “Time up … measurement z” value in [1] was found to be 30 s.

As to `C/C(=C\c1csc(C)n1)[C@@H]1C/C=C\CCC[C@H](C)[C@H](O)[C@@H](C)C(=O)C(C)(C)[C@@H](O)CC(=O)O1` [Epothilone C], the “IC-50” value came out at 20 ng/mL with K-562 (leukaemia) (K-562 (leukaemia)); 10 ng/mL with U-937 (lymphoma) (U-937 (lymphoma)); 150 ng/mL in assay [5] (setting [8]); 30 ng/mL in assay [2] (A-549 (carcinoma of the lung)); 100 ng/mL with Mouse fibroblasts L 929 (Mouse fibroblasts L 929); 20 ng/mL in assay [3] (setting [6]). Further, the “IC-50” value turned out to be 10 ng/mL with HL-60 (leukaemia) (HL-60 (leukaemia)) and 15 ng/mL in [4] (setting [7]). Moreover, the “Time up to the half-maximal polymerization, Agent [%] (relative activity in % of the control)” value in [1] was 49%. Also, in assay [1], the “Time up … [s]” value was 94 s. For the same compound, in [1], the “Time up … measurement w” value stood at 125 s. Further, the “Time up … measurement x” value in assay [1] was 76 s. For the same compound, the “Time up … measurement y” value in assay [1] came to 95 s. In addition, the “Time up … measurement z” value in [1] is 80 s.

For the compound `C/C1=C/C[C@@H](/C(C)=C/c2csc(C)n2)OC(=O)C[C@H](O)C(C)(C)C(=O)[C@H](C)[C@@H](O)[C@@H](C)CCC1` [Epothilone D], the “IC-50” value in the assay on K-562 (leukaemia) (K-562 (leukaemia)) turned out to be 10 ng/mL; with U-937 (lymphoma) (U-937 (lymphoma)), 3 ng/mL; in assay [5] (setting [8]), 20 ng/mL; in [2] (A-549 (carcinoma of the lung)), 10 ng/mL; with Mouse fibroblasts L 929 (Mouse fibroblasts L 929), 20 ng/mL; in [3] (setting [6]) it was 12 ng/mL. The “IC-50” value (in the assay on HL-60 (leukaemia) (HL-60 (leukaemia)); in [4] (setting [7])) was 3 ng/mL in each case. Moreover, the “Time up to the half-maximal polymerization, Agent [%] (relative activity in % of the control)” value in [1] was 56%. The “Time up … [s]” value in [1] is 106 s. Moreover, in [1], the “Time up … measurement w” value came out at 125 s. Moreover, the “Time up … measurement x” value in [1] is on record as 73 s. For the same compound, the “Time up … measurement y” value in [1] was found to be 120 s.

As to `C/C(=C\c1csc(CO)n1)[C@@H]1C[C@@H]2O[C@@H]2CCC[C@H](C)[C@H](O)[C@@H](C)C(=O)C(C)(C)[C@@H](O)CC(=O)O1` [Epothilone E], the “IC-50” value with K-562 (leukaemia) is 2 ng/mL; in the assay with U-937 (lymphoma), 1 ng/mL; in [5] it was 20 ng/mL; in [2], 3 ng/mL; in the assay with Mouse fibroblasts L 929 it was 20 ng/mL; in [3], 5 ng/mL. Besides, the “IC-50” value in the assay on HL-60 (leukaemia) amounted to 1 ng/mL; in [4], 5 ng/mL. Moreover, the 50% inhibitory concentration (IC50) in the assay with Mouse fibroblasts L 929 turned out to be 20 ng/mL (≈ 39.2 nM); in [3], 5 ng/mL (≈ 9.81 nM).

Regarding `C/C(=C\c1csc(CO)n1)[C@@H]1C[C@@H]2O[C@]2(C)CCC[C@H](C)[C@H](O)[C@@H](C)C(=O)C(C)(C)[C@@H](O)CC(=O)O1` [Epothilone F], the “IC-50” value came out at 0.5 ng/mL in the assay with K-562 (leukaemia); 0.2 ng/mL in the assay with U-937 (lymphoma); 3 ng/mL in assay [5]; 0.1 ng/mL in assay [2]; 1.5 ng/mL in the assay on Mouse fibroblasts L 929; 0.5 ng/mL in assay [3]. Also, the “IC-50” value with HL-60 (leukaemia) turned out to be 0.3 ng/mL; in assay [4] it was 0.6 ng/mL.
